Assay results from publication PMC9969401, “Discovery of 2-(3-Benzamidopropanamido)thiazole-5-carboxylate Inhibitors of the Kinesin HSET (KIFC1) and the Development of Cellular Target Engagement Probes” (Journal of Medicinal Chemistry, 2023).

Columns and labels:
[1] = molecular target: T1, recombinant full-length HSET (Homo sapiens, UniProt Q9BW19); assay: ADP-Glo HSET assay (3 μM ATP), microtubule-stimulated ATPase; assay type: biochemical; conditions: for IC50: preformed microtubules, 3 μM ATP, read-out: HSET ADP-Glo IC50
T1 construct: 5 nM full-length human N-terminal His-tag HSET; His-tag (N)
T1 sequence (Q9BW19 1-673): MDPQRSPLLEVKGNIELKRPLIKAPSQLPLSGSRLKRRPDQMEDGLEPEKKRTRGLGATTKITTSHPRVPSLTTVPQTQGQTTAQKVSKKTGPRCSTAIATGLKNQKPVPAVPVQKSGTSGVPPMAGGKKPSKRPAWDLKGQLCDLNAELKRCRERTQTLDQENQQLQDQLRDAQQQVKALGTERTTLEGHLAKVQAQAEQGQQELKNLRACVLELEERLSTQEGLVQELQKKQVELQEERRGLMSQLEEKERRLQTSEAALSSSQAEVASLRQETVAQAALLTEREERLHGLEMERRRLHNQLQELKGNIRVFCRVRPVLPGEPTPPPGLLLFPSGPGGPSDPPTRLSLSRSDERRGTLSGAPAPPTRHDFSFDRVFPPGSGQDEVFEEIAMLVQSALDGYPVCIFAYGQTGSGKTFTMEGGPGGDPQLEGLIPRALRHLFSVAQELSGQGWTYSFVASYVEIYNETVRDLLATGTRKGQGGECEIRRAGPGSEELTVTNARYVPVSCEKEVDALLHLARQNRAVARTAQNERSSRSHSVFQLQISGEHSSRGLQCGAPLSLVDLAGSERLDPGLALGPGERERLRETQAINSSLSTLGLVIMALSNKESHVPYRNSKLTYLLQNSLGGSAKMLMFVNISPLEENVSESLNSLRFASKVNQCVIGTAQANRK
Outline: (§1)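 His-tagged full-length HSET (5 nM) or GST-Eg5 motor domain (4 nM), with 70 μg/mL paclitaxel-stabilised microtubules in HEPES pH 6.8 buffer, was preincubated with compound for 10 min. ATP was then added (3 or 500 μM for HSET, 4.8 μM for Eg5), followed by 80 min at 25 °C and ADP-Glo luminescence. IC50 was fitted with a four-parameter logistic.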

[2] = molecular target: T1, recombinant full-length HSET; assay: ADP-Glo HSET assay (500 μM ATP); assay type: biochemical; conditions: high ATP concentration of 500 μM; single determination or mean of two
Procedure: The HSET or Eg5 ATPase activity was measured using the ADP-Glo Kinase Assay kit (Promega, V9102). The assays were run using final concentrations of 5 nM full-length human N-terminal His-tag HSET or 4 nM GST-tagged Eg5 motor domain protein (Cytoskeleton, EG01) and an assay buffer containing 20 mM HEPES pH 6.8, 10 mM MgCl2, 0.25 mM EGTA, 0.4 mM Triton X-100, and 1 mM DTT. Preformed microtubules (Universal Biologicals Cambridge, bovine MT001-XL, or porcine MT002-XL), which were reconstituted in 15 mM PIPES pH 7, 1 mM MgCl2, and 20 μM paclitaxel, were present at a final assay concentration of 70 μg/mL. A reaction volume of 5 μL was used in Proxiplate 384 plus white assay plates (PerkinElmer, 6008280). To measure compound inhibition, 100 nL of compound dissolved in DMSO or DMSO alone was preincubated with the HSET and microtubules for 10 min before 3 μM Ultra-Pure ATP was added to start the ATPase reaction for the 3 μM ATP HSET assay. For the 500 μM ATP HSET assay, the addition of 500 μM Ultra-Pure ATP was used. For the Eg5 ATPase assay, 4.8 μM Ultra-Pure ATP was used. All reactions were incubated at 25 °C for 80 min and then stopped by the addition of 5 μL of the ADP-Glo reagent. 10 μL of Kinase Detection Reagent was then added after a further 45 min of incubation. The luminescence was read after 45 min on a PheraStar FSX plate reader (BMG Labtech). The data processing was performed using Dotmatics Studies software package. Percentage inhibition was determined based on normalization to high controls (0% inhibition, all reagents with 100 nL of DMSO alone) and low controls (100% inhibition […], without HSET). The IC50 values for each compound were determined using a four-parameter logistic curve fit of % inhibition versus concentration.

[3] = Kinetic aqueous solubility (KSol), HPLC-UV; assay type: physicochemical; conditions: PBS buffer pH 7.4, 100 μM solution with 1% DMSO, HPLC with UV detection
[4] = molecular target: T2, GST-tagged Eg5 motor domain (Homo sapiens, UniProt P52732); assay: ADP-Glo Eg5 assay (4.8 μM ATP); assay type: biochemical; conditions: preformed microtubules, 4.8 μM ATP (Table 4)
T2 construct: 4 nM GST-tagged Eg5 motor domain protein (Cytoskeleton, EG01); purchased Cytoskeleton EG01
T2 sequence (P52732 18-359 limits assumed): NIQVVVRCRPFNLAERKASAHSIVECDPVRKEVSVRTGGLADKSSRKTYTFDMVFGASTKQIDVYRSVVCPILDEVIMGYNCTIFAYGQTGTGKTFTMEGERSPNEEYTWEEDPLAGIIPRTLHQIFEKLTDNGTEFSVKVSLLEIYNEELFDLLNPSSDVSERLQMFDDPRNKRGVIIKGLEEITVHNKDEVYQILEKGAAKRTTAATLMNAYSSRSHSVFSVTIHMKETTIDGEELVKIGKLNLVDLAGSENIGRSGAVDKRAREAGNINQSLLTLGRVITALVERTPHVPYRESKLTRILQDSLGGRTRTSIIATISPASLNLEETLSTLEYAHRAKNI
Outline: as §1

[5] = mean (±SD) n ≥ 3 (37 n = 2, 38 single determination) (Table 3)

| SMILES | IC50 [1, 5] | IC50 ([1]; mean (±SD) n ≥ 3 (Table 4)) | IC50 [2] | KSol data [3] | IC50 [4] | LE ([1]; LE = −1.4Log(IC50 [M])/number of non-hydrogen atoms (Table 2)) | LLE ([1]; LLE = −Log(IC50 [M]) – cLogP (MoKa) (Table 2)) | IC50 ([1]; mean (±SD) n ≥ 3, >200 from a single determination (Table 2)) | fold increase in HSET inhibition ([1]; propyl ester versus ethyl ester 13) | fold decrease in HSET activity ([1]; compared to its parent compound (35)) |
| --- | --- | --- | --- | --- | --- | --- | --- | --- | --- | --- |
| CCCOC(=O)c1sc(NC(=O)C[C@H](CCCN(C)C)NC(=O)c2cccc(-c3noc(C)n3)c2)nc1C [Compound 36, Propyl (S)-2-(6-(Dimethylamino)-3-(3-(5-methyl-1,2,4-oxadiazol-3-yl)benzamido)hexanamido)-4-methylthiazole-5-carboxylate] | 11 nM | 11 nM | 90 nM | >90 µM | > 200000 nM |  |  |  |  |  |
| CCCOC(=O)c1sc(NC(=O)C[C@H](CCCNC)NC(=O)c2cccc(-c3noc(C)n3)c2)nc1C [Compound 35, Propyl (S)-4-Methyl-2-(3-(3-(5-methyl-1,2,4-oxadiazol-3-yl)benzamido)-6-(methylamino)hexanamido)thiazole-5-carboxylate] | 19 nM | 19 nM | 66 nM | >90 µM | > 200000 nM |  |  |  |  |  |
| CCCOC(=O)c1sc(NC(=O)CCNC(=O)c2cccc(-c3noc(C)n3)c2)nc1C [Compound 32, Propyl 4-Methyl-2-(3-(3-(5-methyl-1,2,4-oxadiazol-3-yl)benzamido)propanamido)thiazole-5-carboxylate] |  | 12 nM | 51 nM |  | > 200000 nM | 0.35 | 4.8 | 12 nM | fivefold |  |
| CCCOC(=O)c1sc(NC(=O)C[C@H](CCCN(C)C(=O)O[C@@H]2CC/C=C/CCC2)NC(=O)c2cccc(-c3noc(C)n3)c2)nc1C [Compound 38, Propyl 2-((S)-6-(((((S,E)-Cyclooct-4-en-1-yl)oxy)carbonyl)(methyl)amino)-3-(3-(5-methyl-1,2,4-oxadiazol-3-yl)benzamido)hexanamido)-4-methylthiazole-5-carboxylate] | 217 nM |  |  | 1.8 µM |  |  |  |  |  | 11 fold |
